Format in all cases: functional
The test system of test [1] is A549. Briefly: Percent growth inhibition of A-549 human lung adenocarcinoma at 10e-7 M compound concentration in standard MTT assay.
The subject of test [2] is A549. Briefly: Percent growth inhibition of A-549 human lung adenocarcinoma at 10e-6 M compound concentration in standard MTT assay.
The test system of test [3] is P388. Briefly: Percent growth inhibition of P388 mouse leukemia at 10e-6 M compound concentration in standard MTT assay.
Test [4] has as its system P388. Briefly: Percent growth inhibition of P388 mouse leukemia at 10e-7 M compound concentration in standard MTT assay.
The test system of test [5] is P388. Briefly: Percent growth inhibition of P388 mouse leukemia at 10e-8 M compound concentration in standard MTT assay.
Test [6] deals with A549. Briefly: Percent growth inhibition of A-549 human lung adenocarcinoma at 10e-8 M compound concentration in standard MTT assay.

Structures are written as SMILES.

Consider `CC(=O)OC[C@@H](C)[C@@]1(O)[C@H](OC2OCC(O)C(OC3OCC(O)C(O)C3OC(C)c3ccccc3)C2OC(C)=O)CC2C3CC=C4C[C@@H](OC(C)=O)CC[C@]4(C)C3CC[C@@]21C` (stereo not given in full), for which the inhibition at 0.1 µM stood at 0.8% with A549 [1] and 15.5% in the test on P388 [4]. Further, the inhibition at 1 µM was 6.2% in the test with A549 [2] and 20.4% with P388 [3]. This compound had an inhibition at 0.01 µM in the test with P388 [5] of 17.9%.

Take `CC(=O)OC1C(O[C@@H]2CC3C4CC=C5C[C@@H](O)CC[C@]5(C)C4CC[C@]3(C)[C@@]2(O)[C@H](C)C(=O)CCC(C)C)OCC(O)C1OC1OCC(O)C(O)C1OC(C)c1ccccc1` (stereo not given in full): the inhibition at 0.1 µM came to 29.5% in the test on A549 [1] and 35.4% with P388 [4]. In addition, the inhibition at 1 µM with A549 [2] was 53.8%; in the test on P388 [3] it was 66.7%. Moreover, the inhibition at 0.01 µM in the test with P388 [5] stood at 15.5%.

In the case of `CC(=O)OC1C(O[C@H]2CC[C@@]3(C)C(=CCC4C3CC[C@@]3(C)C4C[C@@H](OC4OCC(O)C(OC5OCC(O)C(O)C5OC(C)c5ccccc5)C4OC(C)=O)[C@]3(O)[C@H](C)C(=O)CCC(C)C)C2)OCC(O)C1OC1OCC(O)C(O)C1OC(C)c1ccccc1` (stereo not given in full), the inhibition at 0.1 µM came to 6.7% in the test on A549 [1] and 52% in the test with P388 [4]. The inhibition at 1 µM in the test with A549 [2] was found to be 80.9%; in the test with P388 [3] it was 90.7%. The compound also returned an inhibition at 0.01 µM in the test on A549 [6] of 0.7%.

The values are drawn from ChEMBL document CHEMBL1133911, “Synthesis of OSW-1 analogues and a dimer and their antitumor activities” (Bioorg Med Chem Lett, 2001).
